Measured values: US8288374B2, “Medicinal composition containing benzo[a]phenoxazine compound as the active ingredient for prevention or treatment of protozoal disease” (Hoshi University, priority 2008, dated 2012)
≈ marks a conversion by molar mass, not a printed value. Where two headings read alike, the source gives them in different places.

Columns and labels:
[1] = tested on: Trypanosoma cruzi (Tulahuen C2C4 strain); assay: American trypanosome protozoa growth inhibition screening test; type: cell-based; conditions: Trypanosoma cruzi, Table 5, in rat L6 cells, 96 hours, CPRG/Nonidet, read-out: 50% Growth inhibition concentration Trypanosoma cruzi
Procedure: In the present experiment, amastigote and trypomastigote infected with rat L6 cells of protozoa of Trypanosoma cruzi (Tulahuen C2C4 starin) were used. As medium used in the test, RPMI 1640 medium containing L6 cells was supplemented so that L-glutamine (200 mM) become 1%, fetal bovine serum becomes 10%, which was cultured under CO2 concentration 5%, at 37° C.
The compounds of the present invention to be used in the present test and the positive control drug (benznidazole) were dissolved in DMSO to make a test solution of a predetermined concentration.
A medium containing 5×10^3 protozoa was added to wells of a 96-well culture plate, and pre-cultured for 48 hours. After replacing the medium, test solution containing drug of a predetermined concentration or a drug-free DMSO was added. Test solutions were taken by duplicates.
After culturing the culture plate in an incubator for 96 hours, growth inhibition activity was tested. Test was conducted as follows. 50 μL of CPRG/Nonidet was added to each well, and allowed to rest for 2 to 6 hours. Next, the culture plate was placed on a fluorescent micro-plate reader. The absorbance was measured at 540 nm, and the trypanosome infection rate of the test solution added group and control group were calculated.
(§1) Growth inhibition rate (%)={1−(b−a)/(c−a)}×100 • a: early infection rate • b: infection rate when test solution was added • c: infection rate of the control

[2] = tested on: Plasmodium berghei NK65 strain; assay: Cure test by oral administration to mice infected with malaria; type: in vivo; conditions: for inhibition in vivo at 100 mg/kg: Plasmodium berghei, infected ICR mice, suppression vs control; for inhibition in vivo at 100 mg/kg / Days of survival: oral, 1 dose, 100 mg/kg; for Days of survival: mean days to death minus that of control mice
Procedure: In this experiment, rodent malaria parasites (the Plasmodium berghei NK65 strain) were used.
The infected blood to be used was subcultured in ICR female SPF mice infected by intraperitoneal or tail vein administration at 4 to 6 weeks old (20 to 26 g). […] Thereafter, based on the number of red cells (cells/ml) and the rate of infection by the protozoans, the blood was diluted with phys'iological saline such that a density of […] malaria parasites/1 ml dose was attained. This was used for infection of uninfected mice (ICR female mice, 5 weeks old) in an amount of 0.2 ml/20 g body weight, through the tail vein (Day-0). The compound used in the test was dissolved in 10% DMSO solution (a mixture of 1 ml of DMSO and 9 ml of 5% glucose solution).
Each group contained 4 mice, and the compound was orally administered to the mice 24 hours after their infection with malaria (Day-1), in an amount calculated such that 100 mg of the compound was administered per 1 kg of the body weight of a mouse. On the other hand, in terms of cases in which the amount was calculated such that 30 mg of the compound was administered per 1 kg of the body weight of a mouse, the oral administration was carried out a total of three times, that is, 24 hours (Day-1), 48 hours (Day-2) and 72 hours (Day-3) after the infection of malaria.
Blood was collected from the tails of each mouse 96 hours (Day-4) and 144 hours (Day-6) after the infection with malaria, and thin blood films were prepared. Under the microscope, the numbers of infection of malaria parasites in the group to which the compound was administered and the control group (to which the compound was not administered) were measured, and the rates of infection with malaria parasites (Parasitemia) were calculated.
From the rate of infection with malaria parasites calculated as above, the cure rate (Suppression) in the case of administration of the drug was calculated according to the following equation. Cure rate: Suppression (%)=(B−A)/B×100
A: Rate of infection with the protozoans in a mouse to which the present test compound was administered
B: Rate of infection with the parasites in a control mouse (to which the compound was not administered) Days of survival: MSD (day)=C−D
C: the average number of days from the date of infection with malaria to the date of death in the mice to which the present test compound was administered
D: The average number of days from the date of infection with malaria to the date of death in the 4 individuals of control mice (to which the compound was not administered)
Further, by observation of changes in the body weight, hair glossiness and the like of each mouse, side effects such as acute toxicity due to administration of the compound were evaluated.

Plasmodium falciparum K1 = assay: Chloroquine resistant-Plasmodium falciparum growth inhibition screening test; type: cell-based; conditions: for Selective toxicity: EC50 against rat L6 cells / EC50 against P. falciparum K1; for EC50: Plasmodium falciparum, Table 2, unit inferred, chloroquine-resistant K1 strain, read-out: P. falciparum K1
Procedure: In the present experiment, protozoa of plasmodium falsiparum K1 strain was used. RPMI-1640 medium sterilized with a filter to which human serum was added to be 5%, was used in the experiment. Malarial parasites were cultured under 3% O2 concentration, 4% CO2 concentration, 93% N2 concentration, and at a temperature of 37° C.
The compounds of the present invention to be used in the present test and the positive control drug (chloroquine) were dissolved in DMSO to make a test solution of a predetermined concentration. Cultured malaria parasite infected-erythrocytes were collected by centrifugation, and diluted with non-infected erythrocyte so that the early infection rate was 0.15%. Hematocrit level at that time was 2.5%.
200 μL of malaria infected solution was added to wells of a 96-well culture plate, and adjusted by adding a test solution containing drug of a predetermined concentration or a drug-free DMSO. Test solutions were taken by duplicates.
[…] […] Radiation intensity was measured with a beta plate liquid scintillation counter (Wallac), and malarial parasite infection rates of the test solution added group and the control group were calculated.
Growth inhibition rate (%)={1−(b−a)/(c−a)}×100 • a: early infection rate • b: infection rate when test solution was added • c: infection rate of the control 3. Growth Inhibition Test of Rat L6 Cells
Antimalarial activity of a sample was estimated from EC50 values of the sample against chloroquine resistant-Plasmodium falciparum and rat L6 cells. […] It means that the larger the value of the selection toxity, the less the risk of the side effect is. Chemotherapy index=(EC50 value of a sample against rat L6 cells)/(EC50 value of a sample against chloroquine resistant-Plasmodium falsiparum)

Rat L6 cells = assay: Growth inhibition test of rat L6 cells; type: cell-based; conditions: Table 2, unit inferred, 72 hours, read-out: Cytoxicity L6
Procedure: Rat derived-L6 cells (rat skeletal myoblast cell) were used. A medium, RPMI1640 medium was supplemented so that L-glutamin (200 mM) is 1%, and fetal bovine serum 10%, and the medium was cultured under CO2 concentration 5%, at 37° C.
The compounds of the present invention and the control drugs to be used in the test were dissolved in DMSO, to make a test solution of a predetermined concentration.
Pre-culture was conducted and medium containing cells which have entered the logarithmic growth phase was taken to wells of a 96-well culture plate. Then, a test solution containing drug of a predetermined concentration or a drug-free DMSO was added. Test solutions were taken by duplicates.
Culture plate was cultured for 72 hours in an incubator, to test the growth inhibition activity. Test was conducted as follows. 10 μL of Alamar Blue aqueous solution was added to each well, and the resultant was further cultured for 2 hours. Next, the culture plate was placed on a fluorescent micro-plate reader (Spectramax Gemeni XS; US Molecular Device), radiated at an excited wavelength of 536 nm. Fluorescent intensity was measured at 588 nm, and residual rate of L6 cells of the test solution added group, and that of the control was calculated.
Growth inhibition rate (%)={(C−A)/(B−A)}×100 • A: Primary cell count • B: cell count of control, 3 days after • C: cell count of wells added with a sample, 3 days after 4. Determination of Drug Efficacy Against Chloroquine Resistant-Plasmodium

[3] = tested on: Trypanosoma brucei rhodesiense (STIB 900 strain); assay: African trypanosome protozoa growth inhibition screening test; type: cell-based; conditions: 72 h, read-out: 50% Growth inhibition concentration Trypanosoma brucei rhod.
Procedure: In the present experiment, protozoa of Tripanosoma brucei rhodensiense (STIB 900 Strain), a trypomastigote living in blood stream, was used. The medium used in the experiment was a MEM medium which was sterilized with a filter and supplemented with 25 mM N-2-hydroxyeihylpiperazine-2-ethansulfonic acid (HEPES), 1 g/L glucose, 1% MEM non-essential amino acid, 0.2 mM 2-mercaptoethanol, 2 mM sodium pyruvate, 0.1 mM hypoxanthine, and 15% heat-treated horse serum. The protozoa was cultured in an atmosphere of CO2 concentration 5%, at a temperature of 37° C.
The compounds of the present invention to be used in the present test and the positive control drug (melarsoprol) were dissolved in dimethylsulfoxide (DMSO) to make a test solution of a predetermined concentration.
A medium containing 8×10^3 protozoa, and a test solution containing a drug of a predetermined concentration of a drug-free DMSO were added to wells of a 96-well culture plate, and subsequently, medium was added so that the amount in each well becomes 100 μL. Test solutions were taken by duplicates.
After culturing the culture plate for 72 hours in an incubator, growth inhibition activity was tested. Test was conducted as follows. 10 μL of Alamar Blue aqueous solution was added to each well, and the resultant was further cultured for 2 hours. Next, the culture plate was placed on a fluorescent micro-plate reader (Spectramax Gemeni XS; US Molecular Device), radiated at an excited wavelength of 536 nm. Fluorescent intensity was measured at 588 nm, to calculate the trypanosome protozoa infected rate of the test solution added-group, and of the control group.
as §1

[4] = tested on: Leishmania donovani (MHOM/ET/67/L82 strain); assay: Leishmania protozoa growth inhibition screening test; type: cell-based; conditions: Leishmania donovani; Table 5; amastigotes, 72 hours, Alamar Blue; read-out: 50% Growth inhibition concentration Leishmania donovani
Procedure: In the present experiment, Leishmania donovani (MHOM/ET/67/L82 strain) was used. Protozoa was subcultured in Syrian Golden hamster, from which an amastigote was obtained. In the experiment, SM medium supplemented with 10% heat-treated bovine fetal serum was used, which was adjusted to pH 5.4, and cultured in an atmosphere of 5% CO2 concentration, at 37° C.
The compounds of the present invention to be used in the present test and the positive control drug (miltefosine) were dissolved in DMSO to make a test solution of a predetermined concentration.
After adding a medium containing a predetermined number of protozoa to wells of a 96-well culture'plate and pre-treating, concentration of the amastigote was measured with CASY cell analysis system (Scharfe, Germany). Then, test solution containing a drug of a predetermined concentration or a drug-free DMSO was added. Test solutions were taken by duplicates.
After culturing the culture plate for 72 hours in an incubator, growth inhibition activity was tested. Test was conducted as follows. 10 μL of Alamar Blue aqueous solution was added to each well, and the resultant was further cultured for 2 hours. Next, the culture plate was placed on a fluorescent micro-plate reader (Spectramax Gemeni XS; US Molecular Device), radiated at an excited wavelength of 536 nm. Fluorescent intensity was measured at 588 nm, and infection rate of leishmania protozoa of the test solution added group and control was calculated.
as §1

[5] = 96 h, read-out: Cure rate (%) Day-4
[6] = 144 h, read-out: Cure rate (%) Day-6

| Structure (SMILES) | inhibition in vivo at 100 mg/kg [2, 5] [%] | inhibition in vivo at 100 mg/kg [2, 6] [%] | Days of survival [2] [days] | Selective toxicity (Plasmodium falciparum K1) | EC50 (Plasmodium falciparum K1) [µg/mL] | EC50 (Rat L6 cells) [µg/mL] | also measured |
| --- | --- | --- | --- | --- | --- | --- | --- |
| O=C(Cn1ccnc1[N+](=O)[O-])NCc1ccccc1 [Benznidazole, benznidazole, reference compound] | – | – | – | – | – | – | EC50 [1]: 0.225 µg/mL (≈ 0.866 µM) |
| CCN(CC)c1ccc2nc3c4ccccc4c(=Nc4cccnc4)cc-3oc2c1 [Compound 1N, N,N-Diethyl-5-(pyridin-3-ylimino)-5H-benzo[a]phenoxazin-9-amine] | 41 | 0 | 0 | 5123 | 0.009 (≈ 0.0228 µM) | 46.1 (≈ 117 µM) | – |
| c1ccc(/N=c2/cc3oc4cc(N5CCOCC5)ccc4nc-3c3ccccc23)nc1 [Compound 1O, N-(9-Morphlino-5H-benzo[a]phenoxazin-5-ylidene)pyridin-2-amine] | 81 | 60 | 0.6 | 1386 | 0.015 (≈ 0.0367 µM) | 20.8 (≈ 50.9 µM) | – |
| CCN(CC)c1ccc2nc3c4ccccc4c(=Nc4cc(C)nc5ccccc45)cc-3oc2c1 [Compound 1P, N,N-Diethyl-5-(2-methylquinoline-4-ylimino)-5H-benzo[a]phenoxazin-9-amine] | – | – | – | 183 | 0.036 (≈ 0.0785 µM) | 6.6 (≈ 14.4 µM) | melting point: 229 to 230 °C |
| CCOC(=O)C(Cc1ccc(O)cc1)N=c1cc2oc3cc(N(CC)CC)ccc3nc-2c2ccccc12 (stereo not drawn) [Compound 1Q, Ethyl 2-[9-(Diethylamino)-5H-benzo[a]phenoxazin-5-ylideneamino]-3-(4-hydroxyphenyl)propanoate] | – | – | – | 751 | 0.045 (≈ 0.0883 µM) | 33.8 (≈ 66.3 µM) | melting point: 175 to 181 °C |
| CCN(CCNS(C)(=O)=O)c1cc(C)c2nc3c4ccccc4c(=Nc4cccnc4)cc-3oc2c1 [Compound 1T, N-Ethyl-N-(2-methansulfonamidylethyl)-11-methyl-5-(pyridine-3-ylimino)-5H-benzo[a]phenoxazin-9-amine] | 96.5 | 79.4 | 13.3 | 2988 | 0.008 (≈ 0.0159 µM) | 23.9 (≈ 47.7 µM) | Effectiveness in the in vivo malaria test, in words ([2]; oral administration to mice infected with rodent malaria): excellent cure effects |
| Nc1nc(N)nc(Nc2ccc([As]3SCC(CO)S3)cc2)n1 (stereo not drawn) [Melarsoprol, melarsoprol, reference compound] | – | – | – | – | – | – | EC50 [3]: 0.0024 µg/mL |
| CCCCCCCCCCCCCCCCOP(=O)([O-])OCC[N+](C)(C)C [Milfotesine, miltefosine, reference compound] | – | – | – | – | – | – | EC50 [4]: 0.114 µg/mL (≈ 0.278 µM) |
